Measurements: paper PMC7367369, “A small library of chalcones induce liver cancer cell death through Akt phosphorylation inhibition” (Scientific Reports, 2020)

Tests used:
Type in all cases: cell-based, human
[1] = system: PARP cleavage in Huh7 and Mahlavu cells; assay: Western blot, PARP cleavage (marker of apoptosis); details: 24 h
Method: Human liver cancer cells Mahlavu and Huh7 were treated with the compounds according to the IC50 values obtained from RT-CES experiments or DMSO controls for 72hr. […] We further assessed the effects of the selected chalcones 1, 9, and 11 on the cell cycle progression analysis of liver cancer cells. Human liver cancer cells Mahlavu and Huh7 were treated with the compounds according to the IC50 values obtained from RT-CES for 72 h. Then the DNA in the treated cells were stained with propidium iodide and analyzed with fluorescent-activated cell sorter. […] In order to confirm the induction of apoptosis in human liver cancer cells treated with the chalcones, cleavage of PARP protein (marker of apoptosis) was investigated.
Figure 3 Cell death induced by the chalcones. (A) Nuclear staining of the liver cancer cells treated with the chalcones. Human liver cancer cells (Huh7 and Mahlavu) were treated with the IC50 concentrations of the chalcones 1, 9, 11. After 72 h of incubation with the compounds or DMSO control, Hoechst (33258) staining was performed. Images were taken with fluorescent microscope (×40). Due to the strong cytotoxic activities of the chalcones the number of the cells in objective area was much less than DMSO controls. (B) Cell cycle distribution of liver cancer cells. Huh7 and Mahlavu cells were treated for 72 h with IC50 concentrations of the compounds or DMSO control. […]

p21 in Mahlavu cells = assay: Western blot, p21 protein levels; details: IC50 concentrations, 24 h
Method: (§1) Figure 4 Proteins targeted by the compounds. Human liver cancer cells (Mahlavu) were treated with the IC50 concentrations of the selected compounds or DMSO control for 24 h. […] (B–D) Quantification of the results using ImageJ software. (E) Schematic representation of the molecular mechanism of action of the compounds. Blocked signaling is crossed.
(§2) In the literature, it was shown that the anti-cancer effect of chalcones on uterus leiomyoma cells was through an increase in p21 protein[35]. Thus we also examined the levels of p21 in our cells. Furthermore, p21 is also a downstream element of Akt pathway. […] Therefore, the effect on Rb protein, which is also a downstream element of p21, was investigated in the presence of the chalcones 1, 9 and 11.
(§3) Poorly differentiated liver cancer cell line Mahlavu cells were cultured in 100 mm culture dish for 24 h. […] Anti-PARP antibody (Cell Signaling, 9532), pAkt (Ser473) antibody (Cell Signaling, 9271), Akt antibody (Cell Signaling, 9272), pNFkB-p65 (Ser468) antibody (Snat Cruz, sc101750), p21 antibody (Millipore, 05345), pRb (Ser807/811) antibody (Cell Signaling, 9308), Rb antibody (Santa Cruz, sc102), actin antibody (Sigma, A5441) and calnexin antibody (Sigma, C4731) were used as primary antibodies. Anti-rabbit (6154) and anti-mouse (0168) secondary antibodies were used. ImageJ tool ([42]) used for protein band intensity comparison. […]

[2] = system: pRb (Ser807/811) in Mahlavu cells; assay: Western blot, phosphorylated Rb protein levels; details: IC50 concentrations, 24 h
Method: as §1, §2, §3

[3] = system: pNFkB-p65 (Ser468) in Mahlavu cells; assay: Western blot, phosphorylation of NFkB-p65; details: IC50 concentrations, 24 h
Method: as §1
NFB is a transcription factor which is a fundamental component of inflammation pathway. This protein has also crucial roles in cell proliferation and apoptosis, thus cancer progression. […] Since the inflammation is one of the hallmarks of cancer, we also investigated the effect of our compounds on NFB protein. […] This form of NFB is the activated form which translocates into the nucleus to function as a transcription factor.
as §3, with “used.” for “used. ImageJ tool ([42]) used for protein band intensity comparison.”

Question: What does the source list for `O=C(/C=C/c1ccccc1)c1ccccc1` [compound 9]?
Answer: PARP cleavage [1]: PARP cleavage was present significantly; p21 protein levels (p21 in Mahlavu cells): increased significantly; phosphorylated Rb protein levels [2]: decreased significantly; phosphorylation of NFB-p65 at Ser468 [3]: decreased significantly

Question: Which PARP cleavage [1] does the source give for `O=C(/C=C/c1ccc(Cl)cc1)c1ccccc1` [compound 11] here?
Answer: PARP cleavage was present significantly

Question: And the p21 protein levels (p21 in Mahlavu cells)?
Answer: increased significantly

Question: And the “phosphorylated Rb protein levels” value [2]?
Answer: decreased significantly

Question: And the “phosphorylation of NFB-p65 at Ser468” value [3]?
Answer: decreased significantly
